Earlier results in patent US7799756B2, “Processes for stereoselective synthesis of trans ISATX247” (Albany Molecular Research, Inc., priority 2004, dated 2010).

What was measured:
[1] = phase IIa, kidney transplantation, mixture of cis and trans isomers
[2] = over natural cyclosporins and presently known cyclosporin derivatives
[3] = compared to the corresponding cis-isomer
[4] = compared to the corresponding cis-isomer; remark: listed apart in the source

| Molecule | clinical trial outcome [1] | potency [2] | therapeutic index [3] | activity on immunosuppression [4] |
| --- | --- | --- | --- | --- |
| C=CC=CC[C@@H](C)[C@@H](O)C1C(=O)N[C@H](CC)C(=O)N(C)CC(=O)N(C)[C@@H](CC(C)C)C(=O)N[C@H](C(C)C)C(=O)N(C)[C@H](CC(C)C)C(=O)N[C@H](C)C(=O)N[C@@H](C)C(=O)N(C)[C@H](CC(C)C)C(=O)N(C)[C@H](CC(C)C)C(=O)N(C)[C@H](C(C)C)C(=O)N1C (stereo partly drawn) [ISATX247, cyclo {(E,Z)-(2S,3R,4R)-3-hydoxy-4-methyl-2-(methylamino)-6,8-nonadienoyl-L-2-aminobutyryl-N-methyl-glycyl-N -methyl-L-leucyl-L-valyl-N-methyl-L-leucyl-L-alanyl-D-alanyl-N-methyl-L-leucyl-N-methyl-L-leucyl-N-methyl-L-valyl}] | positive results | enhanced potency |  |  |
| trans ISATX247 |  |  | improved therapeutic index | better activity on immunosuppression |
